Measured values: US10870641B2, “Pyridazinones as PARP7 inhibitors” (Ribon Therapeutics Inc., priority 2018, dated 2020)

What was measured:
[1] = test system: NCI-H1373 lung cancer cells; assay: Inhibition of cancer cell growth in NCI-H1373 cells (FIG. 2); type: cell-based, human
[2] = test system: CT26 mouse colon cancer cells; assay: Induction of interferon-beta levels in CT26 cells in the presence of STING agonist DMXAA (FIG. 3); type: cell-based
[3] = test system: RAW264.7 mouse macrophages; assay: Induction of interferon-beta levels in RAW264.7 macrophages in the presence of STING agonist DMXAA (FIG. 3); type: cell-based
TIPARP (PARP7) = TIPARP (PARP7) (Homo sapiens (Human), UniProt Q7Z3E1); assay: Enzymatic assay for inhibition of PARP7: displacement of biotinylated Probe A (TR-FRET); type: binding; conditions: TR-FRET displacement of Probe A from TIPARP
Sequence of TIPARP (PARP7) (Q7Z3E1 whole entry): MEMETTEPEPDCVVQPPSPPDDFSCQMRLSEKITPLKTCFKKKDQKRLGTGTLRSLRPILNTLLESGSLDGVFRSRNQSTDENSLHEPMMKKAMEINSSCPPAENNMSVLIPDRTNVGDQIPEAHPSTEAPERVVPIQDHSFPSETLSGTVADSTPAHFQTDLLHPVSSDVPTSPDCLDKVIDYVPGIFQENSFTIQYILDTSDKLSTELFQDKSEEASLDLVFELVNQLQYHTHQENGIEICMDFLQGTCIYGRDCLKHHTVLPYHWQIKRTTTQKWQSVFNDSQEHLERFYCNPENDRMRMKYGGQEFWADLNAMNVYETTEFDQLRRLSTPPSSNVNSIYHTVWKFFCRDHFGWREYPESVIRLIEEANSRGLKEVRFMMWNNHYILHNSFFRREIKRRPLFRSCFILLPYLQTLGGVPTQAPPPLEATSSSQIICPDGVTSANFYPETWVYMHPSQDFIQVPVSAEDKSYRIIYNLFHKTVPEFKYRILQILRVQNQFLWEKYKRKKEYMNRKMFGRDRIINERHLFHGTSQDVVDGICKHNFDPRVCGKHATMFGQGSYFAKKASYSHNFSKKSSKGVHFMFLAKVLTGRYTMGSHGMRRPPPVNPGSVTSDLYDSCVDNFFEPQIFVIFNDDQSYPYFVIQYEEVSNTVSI
Method: 20 nL of a dose response curve of each test compound was spotted in black 384-well polystyrene proxiplates (Perkin Elmer) using a Mosquito (TTP Labtech). […] Reactions were incubated at 25° C. for an additional 30 min, then read on an Envision plate reader equipped with a LANCE/DELFIA top mirror (Perkin Elmer) using excitation of 320 nm and emission of 615 nm and […] with a 90 μs delay. The ratio of the 665/615 nm emission were calculated for each well to determine the amount of complex of TIPARP and Probe A in each well. […] The Hill Coefficient is normally allowed to float but may also be fixed at 1 in a 3-parameter fit. Y is the % inhibition and X is the compound concentration.

[4] = test system: panel of cancer cell lines; assay: Inhibition of cancer cell growth, 72 hrs (CellTiter-Glo), GI50, Table A-2; type: cell-based
Method: (§1) Example C: Inhibition of Cancer Cell Growth by Treatment with PARP7 Inhibitors
(§2) Table A-2 and Table A-3 (below) represents the concentration that causes 50% growth inhibition (GI50) in a panel of cancer cell lines with Compound 18B and Compound 561. Cells were plated into 384-well plates at a pre-specified density in fetal bovine serum-containing media. Cells were treated with compound or vehicle (DMSO) 24 hrs later, and a day zero plate was collected for analysis. Test compound plates were incubated continuously for 72 hrs (Table A-2) or 144 hours (Table A-3) cell growth was assessed using a luminescent cell viability assay (CellTiter-Glo, Promega). The GI50 was determined by correcting for the cell count at time zero (time of treatment) and plotting data as percent growth relative to vehicle-treated cells.

CT26 cells [5] = assay: Proliferation of CT26 cells in the presence of PARP7 inhibitors (CellTiter-Glo); type: cell-based, mouse; conditions: 4 days incubation
Method: Example F: Proliferation of CT26 Cells in the Presence of PARP7 Inhibitors
CT26 cells were plated in a 384-well plate and allowed to adhere for several hours before being treated with Compound 18B. Cells were incubated with compound for 4 days prior to processing with CellTiter-Glo reagent (Promega). Luminescence was measured with a Perkin Elmer Envision and percent inhibition was calculated using the vehicle (DMSO) average as 0% inhibition. Non-linear regression analysis was performed using a 4 parameter (variable slope) fit in GraphPad Prism.

[6] = test system: human NCI-H1373 lung cancer xenograft; assay: Tumor growth in human NCI-H1373 lung cancer xenograft (FIG. 7A); type: in vivo; conditions: once daily administration
[7] = test system: murine CT26 colon cancer syngeneic model; assay: Tumor growth in murine CT26 colon cancer syngeneic model (FIG. 6A-C, 7B); type: in vivo, mouse; conditions: once or twice daily administration, FIG. 7B
[8] = test system: panel of cancer cell lines; assay: Inhibition of cancer cell growth, 144 hours (CellTiter-Glo), GI50, Table A-3; type: cell-based; conditions: MDA-MIB-468 cell line, breast adenocarcinoma
Method: as §1, §2

NCI-H1373 cells = assay: Inhibition of tumor growth by oral dosing, human NCI-H1373 lung cancer xenograft; type: in vivo, SCID mice
From the text: (§3) Example H: Inhibition of Tumor Growth by Oral Dosing with a PARP7 Inhibitor
(§4) The effect of Compound 561 on tumor growth was studied in a human NCI-H1373 lung cancer xenograft and a murine CT26 colon cancer syngeneic model.
For the NCI-H1373 study, SCID mice were inoculated subcutaneously in the right flank with NCI-H1373 cells for tumor development. After 5 days of tumor growth, mice with 89-148 mm^3 tumors were randomized into treatment groups with mean tumor volumes of 121 mm^3. The treatments were started from the next day post randomization (defined randomization day as day 0) and were treated with vehicle (50% Labrasol) or Compound 561 (62.5, 125, 250, and 500 mg/kg) once a day for 28 days by oral gavage. Tumor volumes were determined by manual calipers every 2-3 days. Mean tumor volume and SEM are plotted. QD: once a day; PO: per oral administration. Statistical significance is calculated using two-way ANOVA followed by Bonferroni post-tests in which the treatment groups were compared to vehicle control (****P<0.0001).

CT26 cells [9] = assay: Inhibition of tumor growth by oral dosing, murine CT26 colon cancer syngeneic model; type: in vivo; conditions: BALB/c mice, 125-500 mg/kg BID or 500 mg/kg QD, 21 days
From the text: as §3, §4
For the CT26 study, BALB/c mice were inoculated subcutaneously in the right flank with CT26 cells for tumor development. After 5 days of cell inoculation, mice with 36-79 mm^3 tumors were randomized into treatment groups with mean tumor volumes of 54 mm^3. The treatments were started from the next day post randomization (defined randomization day as day 0) and were treated with vehicle (25 or 50% Labrasol) or Compound 561 BID (2 times a day every 12 hours) at doses ranging from 125-500 mg/kg or QD (once a day) at 500 mg/kg for 21 days by oral gavage or needle subcutaneously. Tumor volumes were determined by manual calipers every 2-3 days. Mean tumor volume and SEM are plotted. BID: twice a day; PO: per oral administration; QD: once a day; SC: per subcutaneous administration. The first two doses for vehicle and Compound 561 500 mg/kg in the QD groups were delivered by subcutaneous injection. […] Statistical significance is calculated using two-way ANOVA followed by Bonferroni post-tests in which the treatment groups were compared to vehicle control (****P<0.0001).

SMILES	growth of NCI-H1373 lung cancer cells [1]	interferon-beta (IFN-β) levels [2]	interferon-beta (IFN-β) levels [3]	IC50 (TIPARP (PARP7)) [nM]	GI50 ([4]; 72 h, GSS cell line, stomach adenocarcinoma) [nM]	GI50 ([4]; LUDLU-1, 72 h, LUDLU-1 cell line, lung squamous cell carcinoma) [nM]	proliferation in CT26 cells in vitro (CT26 cells [5])	tumor growth [6]	tumor growth [7]	GI50 [8] [nM]	tumor regression (NCI-H1373 cells; 62.5 to 500 mg/kg once a day for 28 days, all dose levels)	tumor growth (NCI-H1373 cells; SCID mice, once daily oral gavage, 28 days)	tumor growth (CT26 cells [9])
N#Cc1ccc(N2CCN(C(=O)c3cccc(OC[C@@H]4c5ccccc5CN4c4cn[nH]c(=O)c4C(F)(F)F)c3)CC2)nc1 [Example 18B, 6-[4-[(3-[[(1S)-2-[6-Oxo-5-(trifluoromethyl)-1,6-dihydropyridazin-4-yl]-2,3-dihydro-1H-isoindol-1-yl]methoxy]phenyl)carbonyl]piperazin-1-yl]pyridine-3-carbonitrile]	dose-dependent decrease in growth	induction of interferon-beta (IFN-β) levels	induction of interferon-beta (IFN-β) levels	< 100	100 to 1000	100 to 1000	do not inhibit proliferation	–	–	–	–	–	–
C[C@@H](COCCC(=O)N1CCN(c2ncc(C(F)(F)F)cn2)CC1)Nc1cn[nH]c(=O)c1C(F)(F)F [Example 561, 5-[[(2S)-1-(3-oxo-3-[4-[5-(trifluoromethyl)pyrimidin-2-yl]piperazin-1-yl]propoxy)propan-2-yl]amino]-4-(trifluoromethyl)-2,3-dihydropyridazin-3-one]	–	–	–	–	–	–	–	significantly reduces tumor growth	significantly reduces tumor growth	≥ 1000	complete tumor regression	significantly reduces tumor growth	significantly reduces tumor growth
